Test results reported in publication PMC6934184, “Selective DNA-PKcs inhibition extends the therapeutic index of localized radiotherapy and chemotherapy” (The Journal of Clinical Investigation, 2019).

Target: T1, PLK2 (Homo sapiens, UniProt Q9NYY3)
T1 construct: purchased Thermo Fisher Scientific (Life Technologies) SelectScreen
Experiment: SelectScreen Z'LYTE
Type: biochemical
Outline: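 NU5455 was profiled across the SelectScreen Broad panel of kinase activity and binding assays. Z'LYTE reactions such as CSF1R ran at apparent Km ATP, while the Adapta CAMK1 assay used ATP listed as 10. Values are given as percent.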

T1 sequence (Q9NYY3 whole entry): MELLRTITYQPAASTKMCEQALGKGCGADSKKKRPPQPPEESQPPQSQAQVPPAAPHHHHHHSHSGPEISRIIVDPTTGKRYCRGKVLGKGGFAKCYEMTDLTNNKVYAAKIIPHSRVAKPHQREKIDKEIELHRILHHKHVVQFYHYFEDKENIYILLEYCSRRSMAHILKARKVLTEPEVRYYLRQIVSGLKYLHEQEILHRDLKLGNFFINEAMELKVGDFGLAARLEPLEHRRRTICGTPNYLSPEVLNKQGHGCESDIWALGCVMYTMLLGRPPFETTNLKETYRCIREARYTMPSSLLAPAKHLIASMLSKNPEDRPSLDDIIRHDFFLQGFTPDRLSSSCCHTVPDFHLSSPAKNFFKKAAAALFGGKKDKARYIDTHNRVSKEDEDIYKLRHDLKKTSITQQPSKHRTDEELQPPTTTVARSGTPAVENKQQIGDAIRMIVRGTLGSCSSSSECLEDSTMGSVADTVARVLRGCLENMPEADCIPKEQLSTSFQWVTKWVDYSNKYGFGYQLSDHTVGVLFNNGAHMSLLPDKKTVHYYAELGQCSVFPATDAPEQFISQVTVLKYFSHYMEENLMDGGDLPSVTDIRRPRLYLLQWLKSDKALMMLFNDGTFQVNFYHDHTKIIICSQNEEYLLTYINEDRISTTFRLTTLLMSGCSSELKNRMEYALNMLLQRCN

## CN(C(=O)CN1CCOCC1)c1ccc2sc3c(-c4cccc5c(=O)cc(N6CC7CCC(C6)O7)oc45)cccc3c2c1 [NU5455]
  inhibition at 1 µM: 14.1%
